In ChEMBL document CHEMBL1201862, “PubChem BioAssay data set” (2004):
Active and inactive are the calls of the source. No stated cut-off is given here; in the data, actives have a measured IC50 and inactives only a lower limit.

Experiments:
Assay type in all cases: functional
Caspase-3 = molecular target: T1, Caspase-3 (Homo sapiens, UniProt P42574);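 further: Dose-response selectivity test against caspase-3 for candidate inhibitors of sentrin-specific proteases (SENPs)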
T1 sequence (P42574 whole entry): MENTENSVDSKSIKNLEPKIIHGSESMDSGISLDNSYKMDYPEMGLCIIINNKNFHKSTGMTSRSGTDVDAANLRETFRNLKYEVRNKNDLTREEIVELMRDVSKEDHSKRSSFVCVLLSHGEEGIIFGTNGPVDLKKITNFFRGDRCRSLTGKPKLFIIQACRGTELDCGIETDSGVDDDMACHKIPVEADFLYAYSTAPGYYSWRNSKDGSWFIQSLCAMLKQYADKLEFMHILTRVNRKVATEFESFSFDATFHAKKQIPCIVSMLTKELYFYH

[1] = molecular target: T2, Sentrin-specific protease 7 (Homo sapiens, UniProt Q9BQF6);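 further: Luminescence-based dose-response confirmation of ultra-high-throughput screening hits, measuring inhibition of SENP7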
T2 sequence (Q9BQF6 whole entry): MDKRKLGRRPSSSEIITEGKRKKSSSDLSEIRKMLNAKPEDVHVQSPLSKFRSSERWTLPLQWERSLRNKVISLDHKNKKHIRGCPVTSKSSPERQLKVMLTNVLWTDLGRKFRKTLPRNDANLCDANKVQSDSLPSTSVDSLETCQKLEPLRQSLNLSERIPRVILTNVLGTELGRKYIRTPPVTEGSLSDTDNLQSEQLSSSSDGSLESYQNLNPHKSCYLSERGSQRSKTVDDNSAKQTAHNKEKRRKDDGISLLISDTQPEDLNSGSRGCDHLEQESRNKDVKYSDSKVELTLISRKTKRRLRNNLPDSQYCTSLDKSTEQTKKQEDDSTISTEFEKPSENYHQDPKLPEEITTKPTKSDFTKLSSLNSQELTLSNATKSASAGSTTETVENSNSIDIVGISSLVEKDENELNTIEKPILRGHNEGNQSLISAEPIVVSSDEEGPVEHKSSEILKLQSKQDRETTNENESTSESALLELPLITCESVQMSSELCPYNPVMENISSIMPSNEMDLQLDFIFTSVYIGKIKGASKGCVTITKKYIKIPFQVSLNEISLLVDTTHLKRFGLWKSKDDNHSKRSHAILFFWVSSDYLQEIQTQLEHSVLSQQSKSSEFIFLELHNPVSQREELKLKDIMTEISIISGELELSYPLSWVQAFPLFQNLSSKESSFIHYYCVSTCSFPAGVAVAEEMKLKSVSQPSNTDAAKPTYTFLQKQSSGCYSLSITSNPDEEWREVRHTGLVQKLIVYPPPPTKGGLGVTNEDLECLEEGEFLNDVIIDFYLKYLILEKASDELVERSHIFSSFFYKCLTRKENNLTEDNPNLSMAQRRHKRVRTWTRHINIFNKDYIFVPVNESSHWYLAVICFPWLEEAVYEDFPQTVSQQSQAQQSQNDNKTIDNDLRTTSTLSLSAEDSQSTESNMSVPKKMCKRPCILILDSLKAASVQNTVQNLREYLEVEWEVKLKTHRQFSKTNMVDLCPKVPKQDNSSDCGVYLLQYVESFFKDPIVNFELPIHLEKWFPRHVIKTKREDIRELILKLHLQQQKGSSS

[2] = molecular target: T3, Sentrin-specific protease 6 (Homo sapiens, UniProt Q9GZR1);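 further: Luminescence-based dose-response confirmatory assay of SENP6 inhibition, following up an ultra-high-throughput screen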
T3 sequence (Q9GZR1 whole entry): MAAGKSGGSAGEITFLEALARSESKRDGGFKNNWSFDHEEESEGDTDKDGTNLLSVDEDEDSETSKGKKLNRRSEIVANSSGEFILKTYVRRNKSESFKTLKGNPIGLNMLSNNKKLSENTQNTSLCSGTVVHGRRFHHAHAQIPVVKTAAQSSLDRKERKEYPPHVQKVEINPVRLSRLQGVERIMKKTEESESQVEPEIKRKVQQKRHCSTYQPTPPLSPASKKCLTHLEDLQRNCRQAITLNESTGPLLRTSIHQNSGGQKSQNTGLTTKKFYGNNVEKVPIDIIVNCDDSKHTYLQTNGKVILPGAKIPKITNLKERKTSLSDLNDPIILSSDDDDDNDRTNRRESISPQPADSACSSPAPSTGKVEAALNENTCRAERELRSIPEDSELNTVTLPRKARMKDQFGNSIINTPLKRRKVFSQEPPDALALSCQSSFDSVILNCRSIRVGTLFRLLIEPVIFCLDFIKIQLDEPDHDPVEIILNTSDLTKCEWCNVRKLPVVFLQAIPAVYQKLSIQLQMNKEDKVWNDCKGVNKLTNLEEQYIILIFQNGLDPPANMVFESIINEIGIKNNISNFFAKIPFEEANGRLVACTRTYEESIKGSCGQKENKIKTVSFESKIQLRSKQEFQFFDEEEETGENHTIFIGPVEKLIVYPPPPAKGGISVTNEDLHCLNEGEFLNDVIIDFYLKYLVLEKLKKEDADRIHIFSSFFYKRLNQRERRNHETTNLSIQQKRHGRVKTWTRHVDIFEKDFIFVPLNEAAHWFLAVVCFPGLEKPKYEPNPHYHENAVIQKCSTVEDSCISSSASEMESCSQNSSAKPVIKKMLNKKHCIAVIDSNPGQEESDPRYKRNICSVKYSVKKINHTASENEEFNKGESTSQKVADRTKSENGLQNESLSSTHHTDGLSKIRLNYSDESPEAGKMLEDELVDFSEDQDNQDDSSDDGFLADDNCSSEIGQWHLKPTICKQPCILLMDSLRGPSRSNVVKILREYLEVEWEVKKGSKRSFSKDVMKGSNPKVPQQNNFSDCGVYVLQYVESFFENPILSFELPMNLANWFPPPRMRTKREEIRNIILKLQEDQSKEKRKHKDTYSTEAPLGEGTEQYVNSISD

[3] = molecular target: T4, Sentrin-specific protease 8 (Homo sapiens, UniProt Q96LD8);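 further: luminescence read-out of SENP8 inhibition, dose-response confirmation following an ultra-high-throughput screen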
T4 sequence (Q96LD8 whole entry): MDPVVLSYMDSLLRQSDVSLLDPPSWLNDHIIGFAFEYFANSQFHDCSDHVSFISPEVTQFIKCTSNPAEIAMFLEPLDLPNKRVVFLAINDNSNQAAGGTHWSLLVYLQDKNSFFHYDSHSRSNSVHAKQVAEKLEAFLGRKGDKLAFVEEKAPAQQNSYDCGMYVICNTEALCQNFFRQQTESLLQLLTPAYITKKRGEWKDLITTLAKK

Measured: IC50

C=CCn1c(NC(=O)c2ccccc2Cl)c(C#N)c2nc3ccccc3nc21
active: Caspase-3 5.6 µM | [1] 3.08 µM | [2] < 1.55 µM | [3] < 1.55 µM

CCOC(=O)c1ccc(Nc2cc3ccccc3c(O)n2)cc1
active: Caspase-3 8.27 µM | [1] 10.1 µM | [2] 6.63 µM | [3] 13.6 µM

O=c1oc2c(O)cccc2cc1-c1nc2ccccc2[nH]1
active: Caspase-3 0.95 µM | [1] 0.955 µM | [2] 1.26 µM | [3] 2.65 µM
